# Experimental data taken from PubChem BioAssay AID1259407 (Chemical Carcinogenesis Research Information System (CCRIS), 2018).
# Calls of active or inactive are those of the source. How the calls were made is not given here.
# Tested on: CCRIS mutagenicity, Ames/micronucleus/aberration tests
# Test: CCRIS mutagenicity studies
# [1] = Test System: AMES SALMONELLA TYPHIMURIUM, Strain/Indicator: TA98, Metabolic Activation: NONE, Method: PREINCUBATION
# [2] = Test System: AMES SALMONELLA TYPHIMURIUM, Strain/Indicator: TA100, Metabolic Activation: NONE, Method: PREINCUBATION
smiles,measurement,setting,value
COc1c(CO)c(O)cc2c1C(=O)c1ccccc1C2=O,mutagenic call,[1],inactive; negative
same,mutagenic call,"Test System: AMES SALMONELLA TYPHIMURIUM, Strain/Indicator: TA98, Metabolic Activation: RAT, LIVER, S-9, PCB, Method: PREINCUBATION",inactive; negative
same,mutagenic call,[2],active; positive
same,mutagenic call,"Test System: AMES SALMONELLA TYPHIMURIUM, Strain/Indicator: TA100, Metabolic Activation: RAT, LIVER, S-9, PCB, Method: PREINCUBATION",active; positive
NNc1ccc(C(=O)O)cc1,mutagenic call,"Test System: AMES SALMONELLA TYPHIMURIUM, Strain/Indicator: TA104, Metabolic Activation: MUSHROOM TYROSINASE, Method: PREINCUBATION",inactive; negative
same,mutagenic call,"Test System: AMES SALMONELLA TYPHIMURIUM, Strain/Indicator: TA104, Metabolic Activation: NONE, Method: PREINCUBATION",inactive; negative
same,mutagenic call,"Test System: AMES SALMONELLA TYPHIMURIUM, Strain/Indicator: TA104, Metabolic Activation: RAT, LIVER, CYTOSOL, AROCLOR 1254, NADPH, Method: PREINCUBATION",inactive; negative
CC(C)c1ccc2oc3nc(N)c(C(=O)O)cc3c(=O)c2c1,mutagenic call,[1],inactive; negative
same,mutagenic call,"Test System: AMES SALMONELLA TYPHIMURIUM, Strain/Indicator: TA98, Metabolic Activation: RAT, LIVER, S-9, AROCLOR 1254, Method: PREINCUBATION",inactive; negative
same,mutagenic call,[2],inactive; negative
same,mutagenic call,"Test System: AMES SALMONELLA TYPHIMURIUM, Strain/Indicator: TA100, Metabolic Activation: RAT, LIVER, S-9, AROCLOR 1254, Method: PREINCUBATION",inactive; negative
same,mutagenic call,"Test System: AMES SALMONELLA TYPHIMURIUM, Strain/Indicator: TA1537, Metabolic Activation: NONE, Method: PREINCUBATION",inactive; negative
same,mutagenic call,"Test System: AMES SALMONELLA TYPHIMURIUM, Strain/Indicator: TA1537, Metabolic Activation: RAT, LIVER, S-9, AROCLOR 1254, Method: PREINCUBATION",inactive; negative
same,mutagenic call,"Test System: E. COLI, Strain/Indicator: WP2 (HCR), Metabolic Activation: NONE, Method: PREINCUBATION",inactive; negative
same,mutagenic call,"Test System: E. COLI, Strain/Indicator: WP2 (HCR), Metabolic Activation: RAT, LIVER, S-9, AROCLOR 1254, Method: PREINCUBATION",inactive; negative
CCC[C@H]1O[C@H]1c1ccccc1,mutagenic call,"Test System: AMES SALMONELLA TYPHIMURIUM, Strain/Indicator: TA98, Metabolic Activation: NONE, Method: PREINCUBATION (PHOSPHATE-BUFFERED KCL OR SOLUTE-FREE WATER MEDIA)",inactive; negative
same,mutagenic call,"Test System: AMES SALMONELLA TYPHIMURIUM, Strain/Indicator: TA100, Metabolic Activation: NONE, Method: PREINCUBATION (PHOSPHATE-BUFFERED KCL OR SOLUTE-FREE WATER MEDIA)",inactive; negative
same,mutagenic call,"Test System: AMES SALMONELLA TYPHIMURIUM, Strain/Indicator: TA104, Metabolic Activation: NONE, Method: PREINCUBATION (PHOSPHATE-BUFFERED KCL OR SOLUTE-FREE WATER MEDIA)",inactive; negative
O=c1c2c(c3c(ccc4cc5c(ccc6ccccc65)[nH]c43)c1O)O2,mutagenic call,"Test System: AMES SALMONELLA TYPHIMURIUM, Strain/Indicator: TA98, Metabolic Activation: RAT, LIVER, AROCLOR 1254, NADPH GENERATING SYSTEM, Method: STANDARD PLATE",active; positive
same,mutagenic call,"Test System: AMES SALMONELLA TYPHIMURIUM, Strain/Indicator: TA100, Metabolic Activation: RAT, LIVER, AROCLOR 1254, NADPH GENERATING SYSTEM, Method: STANDARD PLATE",active; positive
same,mutagenic call,"Test System: CHINESE HAMSTER V-79, Strain/Indicator: V-79/8-AZAGUANINE, Method: STANDARD PLATE",active; positive
CCCC(O)C(CC)CO (configuration not stated),mutagenic call,"Test System: AMES SALMONELLA TYPHIMURIUM, Strain/Indicator: TA98, Metabolic Activation: HAMSTER, LIVER, S-9, AROCLOR 1254, Method: STANDARD PLATE",inactive; negative
same,mutagenic call,"Test System: AMES SALMONELLA TYPHIMURIUM, Strain/Indicator: TA98, Metabolic Activation: NONE, Method: STANDARD PLATE",inactive; negative
same,mutagenic call,"Test System: AMES SALMONELLA TYPHIMURIUM, Strain/Indicator: TA98, Metabolic Activation: RAT, LIVER, S-9, AROCLOR 1254, Method: STANDARD PLATE",inactive; negative
same,mutagenic call,"Test System: AMES SALMONELLA TYPHIMURIUM, Strain/Indicator: TA100, Metabolic Activation: HAMSTER, LIVER, S-9, AROCLOR 1254, Method: STANDARD PLATE",inactive; negative
same,mutagenic call,"Test System: AMES SALMONELLA TYPHIMURIUM, Strain/Indicator: TA100, Metabolic Activation: NONE, Method: STANDARD PLATE",inactive; negative
same,mutagenic call,"Test System: AMES SALMONELLA TYPHIMURIUM, Strain/Indicator: TA100, Metabolic Activation: RAT, LIVER, S-9, AROCLOR 1254, Method: STANDARD PLATE",inactive; negative
same,mutagenic call,"Test System: AMES SALMONELLA TYPHIMURIUM, Strain/Indicator: TA1535, Metabolic Activation: HAMSTER, LIVER, S-9, AROCLOR 1254, Method: STANDARD PLATE",inactive; negative
same,mutagenic call,"Test System: AMES SALMONELLA TYPHIMURIUM, Strain/Indicator: TA1535, Metabolic Activation: NONE, Method: STANDARD PLATE",inactive; negative
same,mutagenic call,"Test System: AMES SALMONELLA TYPHIMURIUM, Strain/Indicator: TA1535, Metabolic Activation: RAT, LIVER, S-9, AROCLOR 1254, Method: STANDARD PLATE",inactive; negative
same,mutagenic call,"Test System: AMES SALMONELLA TYPHIMURIUM, Strain/Indicator: TA1537, Metabolic Activation: HAMSTER, LIVER, S-9, AROCLOR 1254, Method: STANDARD PLATE",inactive; negative
same,mutagenic call,"Test System: AMES SALMONELLA TYPHIMURIUM, Strain/Indicator: TA1537, Metabolic Activation: NONE, Method: STANDARD PLATE",inactive; negative
same,mutagenic call,"Test System: AMES SALMONELLA TYPHIMURIUM, Strain/Indicator: TA1538, Metabolic Activation: HAMSTER, LIVER, S-9, AROCLOR 1254, Method: STANDARD PLATE",inactive; negative
same,mutagenic call,"Test System: AMES SALMONELLA TYPHIMURIUM, Strain/Indicator: TA1538, Metabolic Activation: NONE, Method: STANDARD PLATE",inactive; negative
same,mutagenic call,"Test System: AMES SALMONELLA TYPHIMURIUM, Strain/Indicator: TA1538, Metabolic Activation: RAT, LIVER, S-9, AROCLOR 1254, Method: STANDARD PLATE",inactive; negative
same,mutagenic call,"Test System: MOUSE LYMPHOMA, Strain/Indicator: L5178Y (TK+/TK-), Metabolic Activation: NONE, Method: SUSPENSION/PLATE",inactive; positive. reevaluation of results: negative
same,mutagenic call,"Test System: MOUSE LYMPHOMA, Strain/Indicator: L5178Y (TK+/TK-), Metabolic Activation: RAT, LIVER, S-9, AROCLOR 1254, Method: SUSPENSION/PLATE",inactive; negative. reevaluation of results: negative
